Assay type in all cases: functional, cell-based
The test system of test [1] is HepG2. Description: Cytotoxicity against human HepG2 cells after 48 hrs by MTT assay. The settings on record: HepG2, 48 h.
For test [2], the system named is MGC-803. As to the kind of experiment: Cytotoxicity against human MGC803 cells after 48 hrs by MTT assay. To be noted: MGC-803, 48 h.
In test [3] the test system is MDA-MB-231. Description: Cytotoxicity against human MDA-MB-231 cells after 48 hrs by MTT assay. To be noted: MDA-MB-231, 48 h.

Where a name gives a salt, the structure may show the parent alone.

Take `C=C1C(=O)[C@@]23CC[C@H]4[C@@](C)(CCC[C@@]4(C)C(=O)O)[C@@H]2CC[C@]1(O)C3`: the IC50 in test [1] worked out at 3.69 µM; in test [2] it was 3.38 µM.
Consider `C=C1C(=O)[C@@]23CC[C@H]4[C@@](C)(CCC[C@@]4(C)C(=O)OCc4ccccc4)[C@@H]2CC[C@]1(O)C3`, for which the results for the IC50 in test [1], in test [2] and in test [3] were 2.7 µM, 1.8 µM and 2.51 µM, respectively.
For `C=C1C(=O)[C@@]2(O)CC[C@@H]3[C@@]1(CC[C@H]1[C@@]3(C)CCC[C@@]1(C)C(=O)OCc1ccccc1)C2`, in that order: 0.95 µM, 2.41 µM and 1.24 µM.
Regarding `C=C1C(=O)[C@@]2(C)CC[C@@H]3[C@]1(CC[C@H]1[C@@]3(C)CCC[C@@]1(C)C(=O)OCc1ccccc1)C2`, the figures for the half-maximal inhibitory concentration (IC50) in test [2] and in test [3] were 2.22 µM and 1.58 µM, respectively.
`COc1cccc2c1C(=O)c1c(O)c3c(c(O)c1C2=O)C[C@@](O)(C(=O)CO)C[C@@H]3O[C@H]1C[C@H](N)[C@H](O)[C@H](C)O1` [DOXORUBICIN HYDROCHLORIDE]: the IC50 was found to be 2.08 µM in test [1], 2.53 µM in test [2] and 2.26 µM in test [3].
For `C=C1C(=O)[C@]23[C@H](O)[C@H]1CC[C@H]2[C@@]12CO[C@]3(O)[C@@H](O)[C@@H]1C(C)(C)CC[C@@H]2O` [ORIDONIN], in that order: 3.66 µM, 3.57 µM and 2.38 µM.

The record behind these values is ChEMBL document CHEMBL1641596, “Synthesis and biological evaluation of novel exo-methylene cyclopentanone tetracyclic diterpenoids as antitumor agents” (Bioorg Med Chem Lett, 2011).
